Measurements taken from US20240247215A1, “BIOMIMETIC SYSTEM AND METHOD FOR MANUFACTURING SAME” (JSR CORPORATION, priority 2021, published 2024).

How the values were obtained:
[1] = molecular target: T1, BCRP (Homo sapiens, UniProt Q9UNQ0); experiment: Efflux ratio of Hoechst 33342 (BCRP substrate) in biomimetic system; type: in vitro ADME; details: Hoechst 33342 as substrate; system as Manufacturing Example 1, 15 culture days; average of four measurements
T1 construct: the human cholangiocyte-like cells further express at least one or more transporters selected from the group consisting of MRP2, BSEP, and BCRP; endogenous in cells; host or cells: human cholangiocyte-like cells (bile duct organoid derived) on a permeable insert
T1 sequence (Q9UNQ0 1-655): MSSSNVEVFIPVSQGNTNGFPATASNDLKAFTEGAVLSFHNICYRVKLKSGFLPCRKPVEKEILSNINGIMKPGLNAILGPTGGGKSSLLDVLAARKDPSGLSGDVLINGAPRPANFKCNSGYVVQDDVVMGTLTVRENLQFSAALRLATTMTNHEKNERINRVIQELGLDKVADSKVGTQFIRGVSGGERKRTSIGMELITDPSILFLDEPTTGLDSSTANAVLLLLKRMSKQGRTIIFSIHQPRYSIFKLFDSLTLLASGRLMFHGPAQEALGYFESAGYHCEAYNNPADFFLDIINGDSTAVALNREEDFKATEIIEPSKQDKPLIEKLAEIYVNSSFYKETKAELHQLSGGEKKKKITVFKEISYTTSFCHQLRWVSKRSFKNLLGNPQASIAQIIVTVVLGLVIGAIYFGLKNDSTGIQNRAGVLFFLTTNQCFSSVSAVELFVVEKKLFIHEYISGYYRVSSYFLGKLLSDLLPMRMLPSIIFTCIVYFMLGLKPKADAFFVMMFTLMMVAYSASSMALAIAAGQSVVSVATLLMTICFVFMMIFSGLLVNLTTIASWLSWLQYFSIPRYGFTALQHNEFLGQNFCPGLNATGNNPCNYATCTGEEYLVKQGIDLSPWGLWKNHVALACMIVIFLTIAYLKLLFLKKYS
Procedure: The efflux ratio of Hoechst 33342 (CAS number: 23491-52-3), which is a substrate for BCRP, was measured by using the biomimetic system.
Human cholangiocyte-like cells were manufactured by a method similar to that used in Experimental Example 9. In addition, a biomimetic system was manufactured in the same manner as in Manufacturing Example 1 of Experimental Example 2, except that the number of culture days was set to 15 days. The TEER of the manufactured biomimetic system was measured by the same method as that used in Experimental Example 2, and the value was 284.83 Ω·cm^2.
The transport amounts of Hoechst 33342 were measured in the same manner as in Experimental Example 3, except that Hoechst 33342 was used in place of rhodamine 123 as a substrate. Regarding Hoechst 33342, a solution obtained by dissolving the substance in deionized water to a concentration of 1% by mass was used.
FIG. 12A is a graph showing the results of measuring the transport amount (BtoA) four times, and FIG. 12B is a graph showing the results of measuring the transport amount (AtoB) four times. The axis of abscissa in the graph represents the time (minutes), and the axis of ordinate represents the amount (pmoL) of transported Hoechst 33342. The efflux ratio calculated in the same manner as in Experimental Example 3 from the average value of the results of the four measurements was about 23.0.

[2] = molecular target: T2, P-gp (Homo sapiens, UniProt P08183); experiment: Efflux ratio by P-gp: rhodamine 123 transport (AtoB/BtoA) across human cholangiocyte-like cell-containing membrane; type: in vitro ADME; details: rhodamine 123 10 μM
T2 construct: the human cholangiocyte-like cells express P-glycoprotein (P-gp); endogenous in cells; host or cells: human cholangiocyte-like cells derived from human bile duct organoids (from human primary hepatocytes), grown as a 2D membrane on a permeable insert
Procedure: FIG. 4A and FIG. 4B are graphs showing the measurement results of the transport amount (AtoB) and the transport amount (BtoA). […] In addition, as shown in FIG. 4A and FIG. 4B, approximation curves were each created based on the graphs of the transport amount (AtoB) and the transport amount (BtoA), and the gradient (permeation rate) was calculated. Subsequently, the efflux ratio (Efflux Ratio (ER)) was calculated based on Formula (2).
Efflux ratio=(Permeation rate of BtoA)/(permeation rate of AtoB) (2)
FIG. 6A to FIG. 6D are graphs showing the measurement results of the transport amount (AtoB) and the transport amount (BtoA). […] Each of FIG. 6A, FIG. 6B, FIG. 6C, and FIG. 6D presents the results of using a culture medium including Matrigel (registered trademark) at a concentration of 0, 0.1, 0.5, or 2 v/v %. In addition, as shown in FIG. 6A to FIG. 6D, approximation curves were each created based on the graphs of the transport amount (AtoB) and the transport amount (BtoA), and the gradient (permeation rate) was calculated. Subsequently, the efflux ratio was calculated based on the above-described Formula (2).
FIG. 7A to FIG. 7C are graphs showing the measurement results of the transport amount (AtoB) and the transport amount (BtoA). Each of FIG. 7A, FIG. 7B, and FIG. 7C presents the results of using a container coated with Matrigel (registered trademark) at a concentration of 2, 5, or 10 v/v %. In addition, as shown in FIG. 7A to FIG. 7C, approximation curves were each created based on the graphs of the transport amount (AtoB) and the transport amount (BtoA), and the gradient (permeation rate) was calculated. Subsequently, the efflux ratio was calculated based on the above-described Formula (2).

T2 sequence (P08183 whole entry): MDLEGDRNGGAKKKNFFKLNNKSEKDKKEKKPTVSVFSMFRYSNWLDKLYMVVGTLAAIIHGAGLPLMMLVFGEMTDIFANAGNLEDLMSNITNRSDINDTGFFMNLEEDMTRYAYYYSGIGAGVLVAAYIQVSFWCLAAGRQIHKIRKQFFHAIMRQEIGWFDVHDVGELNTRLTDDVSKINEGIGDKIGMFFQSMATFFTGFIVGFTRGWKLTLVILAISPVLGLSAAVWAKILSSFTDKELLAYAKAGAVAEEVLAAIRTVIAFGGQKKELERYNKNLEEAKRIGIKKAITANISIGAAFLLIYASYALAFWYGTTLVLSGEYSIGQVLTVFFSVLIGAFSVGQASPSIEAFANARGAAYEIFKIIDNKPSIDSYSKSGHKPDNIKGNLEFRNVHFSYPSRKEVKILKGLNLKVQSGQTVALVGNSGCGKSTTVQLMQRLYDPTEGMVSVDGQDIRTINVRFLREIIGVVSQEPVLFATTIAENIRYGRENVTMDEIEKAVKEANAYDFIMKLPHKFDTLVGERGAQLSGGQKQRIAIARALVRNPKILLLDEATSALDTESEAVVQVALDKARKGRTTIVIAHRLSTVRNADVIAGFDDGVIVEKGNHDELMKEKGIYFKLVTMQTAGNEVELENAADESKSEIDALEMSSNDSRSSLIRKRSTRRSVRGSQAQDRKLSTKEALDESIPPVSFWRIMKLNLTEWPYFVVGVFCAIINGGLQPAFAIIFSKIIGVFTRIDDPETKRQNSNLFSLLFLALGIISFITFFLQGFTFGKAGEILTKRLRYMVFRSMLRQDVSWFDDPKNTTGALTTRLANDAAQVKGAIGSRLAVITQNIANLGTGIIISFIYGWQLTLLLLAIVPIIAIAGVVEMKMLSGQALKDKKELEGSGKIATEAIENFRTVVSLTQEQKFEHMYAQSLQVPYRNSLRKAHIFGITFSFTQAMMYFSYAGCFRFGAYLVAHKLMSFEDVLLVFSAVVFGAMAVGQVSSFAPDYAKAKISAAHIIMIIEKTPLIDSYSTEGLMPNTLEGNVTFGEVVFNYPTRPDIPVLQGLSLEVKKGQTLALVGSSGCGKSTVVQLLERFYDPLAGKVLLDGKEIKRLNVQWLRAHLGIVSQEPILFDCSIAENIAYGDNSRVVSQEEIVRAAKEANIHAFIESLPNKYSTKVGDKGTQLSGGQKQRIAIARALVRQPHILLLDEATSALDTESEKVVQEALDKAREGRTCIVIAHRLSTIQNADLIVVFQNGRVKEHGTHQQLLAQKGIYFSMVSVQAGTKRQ

Molecule	Efflux ratio [1]	Efflux ratio ([2]; Production Example 3, Matrigel 0 v/v % in culture medium, Day 17)	Efflux ratio ([2]; Production Example 4, Matrigel 0.1 v/v % in culture medium, Day 17)	Efflux ratio ([2]; Production Example 5, Matrigel 0.5 v/v % in culture medium, Day 17)	Efflux ratio ([2]; Production Example 7, Matrigel 2 v/v % in culture medium, Day 17)	Efflux ratio ([2]; Production Example 9, insert coated with 2 v/v % Matrigel, 14 culture days)	Efflux ratio ([2]; Production Example 10, insert coated with 5 v/v % Matrigel, 14 culture days)	Efflux ratio ([2]; Production Example 11, insert coated with 10 v/v % Matrigel, 14 culture days)	Efflux ratio ([2]; biomimetic system of Manufacturing Example 2, Day 17 from start of culture)	Efflux ratio ([2]; biomimetic system of Manufacturing Example 2, Day 23 from start of culture)
CCOc1ccc(-c2nc3ccc(-c4nc5ccc(N6CCN(C)CC6)cc5[nH]4)cc3[nH]2)cc1 [Hoechst 33342]	about 23.0									
rhodamine 123		1.7	1.7	2.2	1.3	4.93	4.70	3.89	7.3	11.6
